Experiments:
[1] = tested on: caspase 3/7 activity of BEAS-2B cells; settings: 100 nM elastase; 10 μM inhibitor pre-incubation
[2] = tested on: BEAS-2B cells; experiment: Cell viability; format: cell-based, human; settings: for Protection against the antiproliferative effects of elastase: Figure 4C, caspase 3 inhibitor 10 μM pre-incubation
[3] = tested on: panel of 68 proteases; settings: 10 μM
[4] = tested on: BEAS-2B cells; experiment: Cell detachment and morphology change; format: cell-based, human; settings: for Elastase-induced cell rounding (morphology change): 10 μM cotreatment, 3 h
[5] = target: Human Pancreatic Chymotrypsin (Homo sapiens, UniProt P17538); experiment: In vitro protease assay, human pancreatic chymotrypsin; format: biochemical
[6] = tested on: transcript levels in BEAS-2B cells; settings: 3 h cotreatment
[7] = tested on: IκB degradation and p65 nuclear translocation; settings: 3 h of cotreatment
[8] = tested on: sICAM-1; settings: 6 h cotreatment, culture supernatant

Sequence of Human Pancreatic Chymotrypsin (P17538 19-263): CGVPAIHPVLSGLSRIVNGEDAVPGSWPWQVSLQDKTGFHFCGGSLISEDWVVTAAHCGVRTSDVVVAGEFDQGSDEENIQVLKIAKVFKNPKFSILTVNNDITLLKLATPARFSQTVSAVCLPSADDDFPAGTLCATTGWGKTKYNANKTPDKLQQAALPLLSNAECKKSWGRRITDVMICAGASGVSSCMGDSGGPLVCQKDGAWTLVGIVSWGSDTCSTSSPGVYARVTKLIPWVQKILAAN

For `COC(=O)CC[C@H](NC(=O)[C@H](CC(=O)OC)NC(=O)OCc1ccccc1)C(=O)N[C@H](C(=O)N[C@@H](CC(=O)OC)C(=O)CF)C(C)C`, the “Effect on elastase-induced increase in caspase activation” value [1] was “abrogated” and the “Protection against the antiproliferative effects of elastase” value [2] was “partially protected”.
In the case of `C/C=C1\NC(=O)[C@@H](NC(=O)[C@H](CCC(N)=O)NC(=O)CCCCC)[C@@H](C)OC(=O)[C@H](C(C)C)NC(=O)[C@H](Cc2ccc(O)cc2)N(C)C(=O)[C@H](Cc2ccccc2)N2C(=O)[C@H](CC[C@H]2O)NC1=O` [Lyngbyastatin 7], the “Inhibition of the serine proteases elastase, chymotrypsin and proteinase K” value [3] is reported as “completely inhibiting”.
`CC(C)(C)C(=O)Oc1ccc(S(=O)(=O)Nc2ccccc2C(=O)NCC(=O)O)cc1` [Sivelestat] was tested, and the “Elastase-induced cell rounding (morphology change)” value [4] was “prevented this effect of elastase”, the “Concentration showing cytoprotective effect against cell detachment” value ([4]; 12 h) was 100 µM and the “Protection against the antiproliferative effects of elastase” value [2] was “partially protected”. The “Concentration required to completely negate elastase-induced cytotoxicity” value ([2]; elastase co-treatment, 24 h) was 100 µM and the IC50 [5] was over 10000 nM.
In the case of `C/C=C1\NC(=O)[C@@H](NC(=O)[C@@H](NC(=O)[C@@H](COS(=O)(=O)[O-])OC)C(C)C)[C@@H](C)OC(=O)[C@H]([C@H](C)CC)NC(=O)[C@H](Cc2ccccc2)N(C)C(=O)[C@H](Cc2ccccc2)N2C(=O)[C@H](CC[C@H]2O)NC1=O.[Na+]` [Symplostatin 5 (1), Symplostatin 5], the “Elastase-induced cell rounding (morphology change)” value [4] is reported as “prevented this effect of elastase”, the “Effect on proliferation of BEAS-2B cells” value ([2]; up to 100 μM, with solvent control or 100 nM elastase, 24 h) is reported as “did not significantly affect the proliferation” and the “Elastase-induced increase in IL1B transcript levels (RT-qPCR)” value [6] is reported as “strongly abrogated”. For the same compound, the “Elastase-induced IκB degradation and p65 nuclear translocation” value [7] was “dose-dependently inhibited” and the “Concentration that decreased elastase-induced sICAM-1 level” value [8] was at least 1 µM.
“elastase: exogenous elastase used to challenge BEAS-2B cells” gave an IC50 ([2]; read-out: Antiproliferative IC50 of elastase (MTT), BEAS-2B, 24 h) of 77.5 ± 4.9 nM.
